Experimental data published in US8354414B2, “Substituted bicyclic pyrimidines” (Cephalon, Inc, priority 2006, dated 2013).
pIC50: −log10 of the molar value. Structures can show the parent of a compound that is named as a salt. Where two headings read alike, the source gives them in different places.

Columns and labels:
CDK5/GST-p25 = target: T1, CDK5/GST-p25 (Homo sapiens, UniProt Q00535); experiment: Inhibition of CDK5/GST-p25 kinase activity (ELISA with time-resolved fluorescence readout); assay type: biochemical
T1 construct: The final construct, encoding for full-length human CDK5; made in house; host or cells: Sf21 insect cells (baculovirus co-infection)
T1 sequence (Q00535 whole entry): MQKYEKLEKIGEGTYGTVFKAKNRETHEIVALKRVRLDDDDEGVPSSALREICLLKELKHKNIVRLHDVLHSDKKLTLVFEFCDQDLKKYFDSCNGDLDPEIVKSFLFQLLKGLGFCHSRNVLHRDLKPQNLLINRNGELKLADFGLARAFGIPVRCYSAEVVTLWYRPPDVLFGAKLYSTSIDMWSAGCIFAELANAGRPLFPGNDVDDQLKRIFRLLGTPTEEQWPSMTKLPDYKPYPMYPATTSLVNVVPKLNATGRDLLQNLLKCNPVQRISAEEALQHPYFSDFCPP
T1 sequence (Q15078 108-307 partner limits assumed): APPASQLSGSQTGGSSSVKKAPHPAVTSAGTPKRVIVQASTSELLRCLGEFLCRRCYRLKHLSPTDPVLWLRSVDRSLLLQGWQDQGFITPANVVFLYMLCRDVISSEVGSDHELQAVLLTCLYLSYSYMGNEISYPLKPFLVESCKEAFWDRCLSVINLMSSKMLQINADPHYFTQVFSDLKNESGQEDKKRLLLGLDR
Procedure, shortened: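 Sf21-coexpressed full-length human CDK5 with GST-p25 (p35 aa 108-307), glutathione-purified, at 2 ng/ml was reacted for 20 min at 37 °C on plate-coated GST-Rb(773-928). Buffer was 20 mM HEPES pH 7.2, 10 µM ATP, 10 mM MgCl2 and 2.5% DMSO. Phospho-Rb Ser-780 was detected by Eu-labelled antibody TRF, and IC50 curves were fitted.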

His6-GSK-3β = target: T2, His6-GSK-3β (Homo sapiens, UniProt P49841); experiment: Inhibition of His6-GSK-3β kinase activity (ELISA-based format, time-resolved fluorescence readout); assay type: biochemical; conditions: read-out: GSK3β IC50
T2 construct: made in house; host or cells: Sf21 insect cells (baculovirus)
T2 sequence (P49841 2-419): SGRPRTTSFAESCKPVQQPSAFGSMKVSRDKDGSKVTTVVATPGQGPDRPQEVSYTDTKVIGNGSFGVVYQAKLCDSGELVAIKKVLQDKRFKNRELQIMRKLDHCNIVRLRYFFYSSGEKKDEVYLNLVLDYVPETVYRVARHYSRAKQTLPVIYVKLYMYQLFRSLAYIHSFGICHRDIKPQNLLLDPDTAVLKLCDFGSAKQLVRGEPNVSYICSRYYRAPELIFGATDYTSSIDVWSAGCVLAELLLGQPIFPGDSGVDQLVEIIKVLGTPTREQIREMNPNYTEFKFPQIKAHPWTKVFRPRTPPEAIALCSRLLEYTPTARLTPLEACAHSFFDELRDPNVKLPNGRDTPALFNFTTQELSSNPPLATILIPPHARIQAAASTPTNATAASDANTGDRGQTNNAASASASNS
Procedure, shortened: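 N-terminal His6-tagged full-length human GSK-3β (aa 2-419) expressed in Sf21 cells, 200 ng/ml, phosphorylating plate-coated GST-Rb with 20 μM ATP in pH 7.2 HEPES buffer, 30 min at 37° C. Phospho-Rb (Ser-780) detected by antibody plus Eu-labelled secondary, time-resolved fluorescence; IC50 from curves.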

melting point	inhibition at 10 µM (CDK5/GST-p25)	pIC50 (His6-GSK-3β; class symbols)	pIC50 (CDK5/GST-p25; class symbols)	pIC50 (CDK5/GST-p25; numeric bounds)	pIC50 (His6-GSK-3β; numeric bounds)	SMILES
> 300 °C	67%	> 6.52				C[C@@H](O)CNc1nc(C2C(=O)Nc3ccc(Br)cc32)c2cn(C3CCCC3)nc2n1 (stereo partly drawn) [Example 373]
> 300 °C		< 5.00	< 5.00			CCOCCn1cc2c(C3C(=O)Nc4ccc(Cl)cc43)nc(Cl)nc2n1 (stereo not drawn) [Example 211, 5-Chloro-3-[6-chloro-2-(2-ethoxy-ethyl)-2H-pyrazolo[3,4-d]pyrimidin-4-yl]-1,3-dihydro-indol-2-one]
> 300 °C		5.52 to 6.52	> 6.52			CC(C)n1cc2c(C3C(=O)Nc4ccc(Cl)cc43)ncnc2n1 (stereo not drawn) [Example 381, 5-Chloro-3-(2-isopropyl-2H-pyrazolo[3,4-d]pyrimidin-4-yl)-1,3-dihydro-indol-2-one]
265 °C (dec.)		> 6.52	> 6.52			C=CCNc1nc(C2C(=O)Nc3ccc(C#N)cc32)c2cn(CCCCC)nc2n1 (stereo not drawn) [Example 293, 3-(6-Allylamino-2-pentyl-2H-pyrazolo[3,4-d]pyrimidin-4-yl)-2-oxo-2,3-dihydro-1H-indole-5-carbonitrile]
293 to 297 °C		< 5.00		< 5.52		CCCn1ncc2c(C3C(=O)Nc4ccc(Cl)cc43)ncnc21 (stereo not drawn) [Example 95, 5-Chloro-3-(1-propyl-2H-pyrazolo[3,4-d]pyrimidin-4-yl)-1,3-dihydro-indol-2-one]
198 to 200 °C		> 6.52	5.52 to 6.52			O=C1Nc2ccccc2C1c1nc(NCc2ccncc2)nc2nn(C3CCCC3)cc12 (stereo not drawn) [Example 241, 3-{2-Cyclopentyl-6-[(pyridin-4-ylmethyl)-amino]-2H-pyrazolo[3,4-d]pyrimidin-4-yl}-1,3-dihydro-indol-2-one]
283 to 291 °C		> 6.52	> 6.52			CCCn1cc2c(C3C(=O)Nc4ccc(Br)cc43)nc(NCCc3ccccn3)nc2n1 (stereo not drawn) [Example 191, 5-Bromo-3-[2-propyl-6-(2-pyridin-2-yl-ethylamino)-2H-pyrazolo [3,4-d]pyrimidin-4-yl]-1,3-dihydro-indol-2-one]
256 to 260 °C		5.52 to 6.52	> 6.52			O=C1Nc2ccc(F)cc2C1c1ncnc2nn(C3CCCC3)cc12 (stereo not drawn) [Example 40, 3-(2-Cyclopentyl-2H-pyrazolo[3,4-d]pyrimidin-4-yl)-5-fluoro-1,3-dihydro-indol-2-one]
> 300 °C		5.52 to 6.52	< 5.00			N#Cc1ccc2c(c1)C(c1ncnc3c1cnn3C1CCCC1)C(=O)N2 (stereo not drawn) [Example 55, 3-(1-Cyclopentyl-1H-pyrazolo[3,4-d]pyrimidin-4-yl)-2-oxo-2,3-dihydro-1H-indole-5-carbonitrile]
294 to 296 °C			5.52 to 6.52		< 5.52	O=C1Nc2cc(Cl)ccc2C1c1ncnc2nn(C3CCCC3)cc12 (stereo not drawn) [Example 32, 6-Chloro-3-(2-Cyclopentyl-2H-pyrazolo [3,4-d]pyrimidin-4-yl)-2-oxo-1,3-dihydro-indol-2-one]
> 300 °C		< 5.00	< 5.00			O=C1Nc2ccc(F)c(F)c2C1c1ncnc2c1cnn2C1CCCC1 (stereo not drawn) [Example 67, 3-(1-Cyclopentyl-1H-pyrazolo[3,4-d]pyrimidin-4-yl)-4,5-difluoro-1,3-dihydro-indol-2-one]
> 300 °C	77%	> 6.52				C[C@H](O)CNc1nc(C2C(=O)Nc3ccc(Br)cc32)c2cn(C3CCCC3)nc2n1 (stereo partly drawn) [Example 372]
299 to 303 °C				< 5.52		O=C1Nc2cc(Cl)ccc2C1c1ncnc2nn(C3CCCCC3)cc12 (stereo not drawn) [Example 51, 6-Chloro-3-(2-cyclohexyl-2H-pyrazolo[3,4-d]pyrimidin-4-yl)-1,3-dihydro-indol-2-one]

The remaining lines, values behind:

SMILES	melting point	inhibition at 10 µM (CDK5/GST-p25)	pIC50 (His6-GSK-3β; class symbols)	pIC50 (CDK5/GST-p25; class symbols)	pIC50 (CDK5/GST-p25; numeric bounds)	pIC50 (His6-GSK-3β; numeric bounds)
O=C1Nc2ccc(C(F)(F)F)cc2C1c1ncnc2c1cnn2C1CCCCC1 (stereo not drawn) [Example 71, 3-(1-Cyclohexyl-1H-pyrazolo [3,4-d]pyrimidin-4-yl)-5-trifluoromethyl-1,3-dihydro-indol-2-one]	> 300 °C		< 5.00	< 5.00		
CC(C)CNc1nc(C2C(=O)Nc3ccc(Cl)cc32)c2cn(C3CCCC3)nc2n1 (stereo not drawn) [Example 280, 5-Chloro-3-(2-cyclopentyl-6-isobutylamino-2H-pyrazolo[3,4-d]pyrimidin-4-yl)-1,3-dihydro-indol-2-one]	282 to 286 °C		> 6.52	< 5.00		
O=C1Nc2ccccc2C1c1ncnc2nn(C3CCCC3)cc12 (stereo not drawn) [Example 37, 3-(2-Cyclopentyl-2H-pyrazolo[3,4-d]pyrimidin-4-yl)-1,3-dihydro-indo-2-one]	289 to 292 °C		5.52 to 6.52	5.52 to 6.52		
Cl.NCCCNc1nc(C2C(=O)Nc3ccc(C(F)(F)F)cc32)c2cn(C3CCCC3)nc2n1 (stereo not drawn) [Example 254, 3-[6-(3-Amino-propylamino)-2-cyclopentyl-2H-pyrazolo[3,4-d]pyrimidin-4-yl]-5-trifluoromethyl-1,3-dihydro-indol-2-one hydrochloride salt]	304 to 306 °C		> 6.52	5.52 to 6.52		
O=C1Nc2ccc(Cl)cc2C1c1nc(NCCCN2CCOCC2)nc2nn(C3CCCC3)cc12 (stereo not drawn) [Example 278, 5-Chloro-3-[2-cyclopentyl-6-(3-morpholin-4-yl-propylamino)-2H-pyrazolo[3,4-d]pyrimidin-4-yl]-1,3-dihydro-indole-2-one]	250 to 254.5 °C		> 6.52	5.52 to 6.52		
O=C1Nc2ccccc2C1c1nc(NCc2cccnc2)nc2nn(C3CCCC3)cc12 (stereo not drawn) [Example 156, 3-{2-cyclopentyl-6-[(pyridin-3-ylmethyl)-amino]-2H-pyrazolo [3,4-d]pyrimidin-4-yl}-1,3-dihydro-indol-2-one]	216 to 218 °C		> 6.52	> 6.52		
COCCn1cc2c(C3C(=O)Nc4ccc(Br)cc43)nc(Cl)nc2n1 (stereo not drawn) [Example 225, 5-Bromo-3-[6-chloro-2-(2-methoxy-ethyl)-2H-pyrazolo [3,4-d]pyrimidin-4-yl]-1,3-dihydro-indol-2-one]	> 300 °C		> 6.52	< 5.00		
O=C1Nc2ccc(C(F)(F)F)cc2C1c1nc(NCCCN2CCOCC2)nc2nn(C3CCCC3)cc12 (stereo not drawn) [Example 162, 3-[2-cyclopentyl-6-(3-morpholin-4-yl-propylamino)-2H-pyrazolo [3,4-d]pyrimidin-4-yl]-5-trifluoromethyl-1,3-dihydro-indol-2-one]	288 to 291 °C		> 6.52		< 6.00	
N#Cc1ccc2c(c1)C(c1ncnc3[nH]ncc13)C(=O)N2 (stereo not drawn) [Example 109, 2-Oxo-3-(1H-pyrazolo[3,4-d]pyrimidin-4-yl)-2,3-dihydro-1H-indole-5-carbonitrile]	> 300 °C (dec.)		> 6.52	> 6.52		
Cn1cc2c(C3C(=O)Nc4ccc(Br)cc43)nc(NCCN)nc2n1 (stereo not drawn) [Example 303, 3-[6-(2-Amino-ethylamino)-2-methyl-2H-pyrazolo [3,4-d]pyrimidin-4-yl]-5-bromo-1,3-dihydro-indol-2-one]	260 to 262 °C		5.52 to 6.52	> 6.52		
O=C1Nc2ccc(C(F)(F)F)cc2C1c1nc(NCc2cccnc2)nc2nn(C3CCCC3)cc12 (stereo not drawn) [Example 161, 3-{2-cyclopentyl-6-[(pyridin-3-ylmethyl)-amino]-2H-pyrazolo [3,4-d]pyrimidin-4-yl}-5-trifluoromethyl-1,3-dihydro-indol-2-one]	> 300 °C	68%	> 6.52			
CCCn1cc2c(C3C(=O)Nc4ccc(F)cc43)ncnc2n1 (stereo not drawn) [Example 100]	288 to 292 °C		5.52 to 6.52	> 6.52		
O=C1Nc2ccc(Cl)cc2C1c1ncnc2nn(C3CCCCC3)cc12 (stereo not drawn) [Example 48, 5-Chloro-3-(2-cyclohexyl-2H-pyrazolo[3,4-d]pyrimidin-4-yl)-1,3-dihydro-indol-2-one]	294 to 298 °C		> 6.52	5.52 to 6.52		
CC(C)Cn1cc2c(C3C(=O)Nc4ccc(Cl)cc43)nc(NCCN(C)C)nc2n1 (stereo not drawn) [Example 270, 5-Chloro-3-[6-(2-dimethylamino-ethylamino)-2-isobutyl-2H-pyrazolo[3,4-d]pyrimidin-4-yl]-1,3-dihydro-indol-2-one]	264 to 265.5 °C		> 6.52	5.52 to 6.52		
CCOCCn1cc2c(C3C(=O)Nc4ccc(Cl)cc43)nc(NC[C@H](C)O)nc2n1 (stereo partly drawn) [Example 219, 5-Chloro-3-[2-(2-ethoxy-ethyl)-6-((S)-2-hydroxy-propylamino)-2H-pyrazolo [3,4-d]pyrimidin-4-yl]-1,3-dihydro-indol-2-one]	> 300 °C		> 6.52	> 6.52		
CNCCCNc1nc(C2C(=O)Nc3ccc(Br)cc32)c2cn(C)nc2n1 (stereo not drawn) (as salt: hydrochloride) [Example 306, 5-Bromo-3-[2-methyl-6-(3-methylamino-propylamino)-2H-pyrazolo [3,4-d]pyrimidin-4-yl]-1,3-dihydro-indol-2-one]	271 to 273 °C					
